Laboratory results taken from patent US12060379B2, “Plasmalogen derivatives” (Institute of Rheological Functions of Food, priority 2018, dated 2024).

Columns and labels:
[1] = tested on: ERK (ERK1/2) phosphorylation in mouse neuroblastoma derived NEURO2A cell; experiment: ERK (ERK1/2) phosphorylation, Western Blotting, NEURO2A cells; assay type: cell-based; settings: 5 μg/ml, 30 minutes, compared with s-Pls (FIG. 1)
Protocol: Neuronal cell lines (mouse neuroblastoma derived NEURO2A cell and human neuroblastoma derived SH-SY5Y cell) were cultivated in DMEM medium containing 10% FBS (fetal bovine serum) for 24 hours. […] At this stage, the same amount of protein (50 μg of protein extracts) was subjected to an analysis to compare phosphorylation of ERK (ERK ½) (p-ERK).
Neuronal cell lines (mouse neuroblastoma derived NEURO2A cell) were cultivated in DMEM medium containing 10% FBS (fetal bovine serum) for 24 hours. […] At this stage, the same amount of protein (50 μg of protein extracts) was subjected to an analysis to compare phosphorylation of ERK (ERK %) (p-ERK).

[2] = tested on: ERK (ERK1/2) phosphorylation in human neuroblastoma derived SH-SY5Y cell; experiment: ERK (ERK1/2) phosphorylation, Western Blotting, SH-SY5Y cells; assay type: cell-based; settings: 5 μg/ml, 30 minutes, compared with s-Pls (FIG. 1)
Protocol: By using a neuronal cell line, a study was performed with respect to enhanced phosphorylation activities of ERK (ERK1/2) with compounds according to the present invention.
Neuronal cell lines (mouse neuroblastoma derived NEURO2A cell and human neuroblastoma derived SH-SY5Y cell) were cultivated in DMEM medium containing 10% FBS (fetal bovine serum) for 24 hours. Subsequently, they were cultivated in DMEM medium containing 2% FBS for overnight (18 hours), which were then processed with 5 μg/ml of s-Pls (scallop-derived Pls), Compound REO-002 according to the present invention, and Compound REO-003 according to the present invention for 30 minutes respectively, and cells were subjected to Western Blotting assay. At this stage, the same amount of protein (50 μg of protein extracts) was subjected to an analysis to compare phosphorylation of ERK (ERK ½) (p-ERK).
Neuronal cell lines (human neuroblastoma derived SH-SY5Y cell) were cultivated in DMEM medium containing 10% FBS (fetal bovine serum) for 24 hours. Subsequently, they were cultivated in DMEM medium containing 2% FBS for overnight (18 hours), which were then processed with 1 μg/ml, 5 μg/ml of Compounds REO-004-007 according to the present invention for 30 minutes respectively, and cells were subjected to Western Blotting assay. […]

CC/C=C\C/C=C\C/C=C\C/C=C\C/C=C\C/C=C\CCC(=O)O[C@@H](COCCCCCOc1ccccc1)COP(=O)(O)OCCN [REO-003]
enhanced phosphorylation activities of ERK (ERK1/2) (p-ERK) [1]: exhibit enhanced phosphorylation activities of ERK (ERK½) equivalent to s-Pls | enhanced phosphorylation activities of ERK (ERK1/2) (p-ERK) [2]: exhibit enhanced phosphorylation activities of ERK (ERK½) equivalent to s-Pls
